Patent publication US10080789B2, “Programming of cells for tolerogenic therapies” (President and Fellows of Harvard College, priority 2009, dated 2018)
Where no end group is shown, it is not given here.

Columns and labels:
[1] = target: T1, T cell-specific potassium channel Kv1.3 (Rattus norvegicus, UniProt P15384); settings: cited from earlier work
T1 construct: endogenous in cells

[2] = Release profile of GM-CSF from polymer delivery vehicle; type: physicochemical; settings: within the first 5 days; then slow sustained release over next 10 days
Description: (§1) Numbers in FACS plots indicate the percentage of the cell population positive for both markers. FIG. 4D is the percentage of total cells that were positive for the DC markers CD11c and CD86, in blank (-∘-) and GM-CSF (-●-) loaded polymers as a function of time post implantation. […] Scale bar—500 μm. Values in FIGS. 4A, 4D, 4E, and 4F represent mean and standard deviation (n=4 or 5); *P<0.05; **P<0.01.
(§2) The polymer delivery vehicle presents GM-CSF in a defined spatiotemporal manner in vivo, following introduction into the tissue of interest. […]
To determine the efficiency of GM-CSF, TSLP, and pDNA incorporation and the kinetics of release, ^125I-labeled factors (Perkin Elmer) are utilized as a tracer, and gels and placed in Phosphate Buffer Solution (PBS) (37° C.). At various time points, the PBS release media is collected and amount of ^125I-factor released from the scaffolds is determined at each time point using a gamma counter and normalizing to the total ^125I-factor incorporated into the gels. To asses the retention of GM-CSF bioactivity, loaded gels are placed in the top wells of 6.5 mm transwell dishes (Costar, Cambridge, Mass.) with a pore size of 3 μm and the proliferation of JAWS II cells (DC cell line) cultured in the bottom wells is evaluated at various time points using cell counts from a hemacytometer. […]

CD11c(+)CD86(+) DCs = assay: In vivo DC recruitment to subcutaneously implanted GM-CSF loaded polymers; parameters: species or system C57BL/6J mice; settings: polymers loaded with 3 μg GM-CSF
Description: as §1, §2
Gels with various combinations of factors are injected into gingival of mice. […] To analyze DC recruitment, gels and surrounding tissue are excised at various time-points and the tissue digested into single cell suspensions using a collagenase solution (Worthingtion, 250 U/ml) that was agitated at 37° C. for 45 min The cell suspensions are then poured through a […] cell strainer to isolate cells from gel particles and the cells are pelleted and washed with cold PBS and counted using a Z2 coulter counter (Beckman Coulter). […] Cells are gated according to positive labels using isotype controls, and the percentage of cells staining positive for each surface antigen is recorded.

JAWSII DCs = assay: JAWSII DC recruitment, proliferation, emigration and activation in vitro (transwell); type: cell-based
Experimental: FIGS. 3A-D show data related to the concentration dependent effects of GM-CSF on DC proliferation, recruitment, activation and emigration in vitro. […] Migration counts measured at 12 hours. FIG. 3B is the effects of GM-CSF concentration on the proliferation of JAWSII DCs. 0 (white bar), 50 (grey bar), and 500 ng/ml (black bar) of GM-CSF. […] Migration counts taken at 6 hours. FIG. 3D are representative photomicrographs of TNF-α and LPS stimulated JAWSII DCs cultured in 5-50 or 500 ng/ml GM-CSF and stained for the activation markers MHCII and CCR7. Scale bar in FIG. 3D—20 μm. Values in FIGS. 3A-C represent mean and standard deviation (n=4); *P<0.05; **P<0.01
Migration assays are performed with 6.5 mm transwell dishes (Costar, Cambridge, Mass.) with a pore size of 5 μm. The effects of GM-CSF and TSLP, (Invivogen, San Diego, Calif.) on the migration of DCs are assessed by placing recombinant murine GM-CSF and TSLP in the bottom wells and 5×10^5 DCs in the top wells. To assess the effects of GM-CSF and TSLP on DC activation, cells are cultured with bacterial stimulation (fixed Aa, fixed P. gingivalis, Aa-LPS or Pg-LPS along) with various concentrations of TSLP and GM-CSF for 24 hours and then the cells are washed and fixed in 10% formalin. The cells are prepared for fluorescence immunohistochemistry as per below, and examined using fluorescent microscopy (Olympus, Center Valley, Pa.). Cells are also analyzed by FACS, and gated according to positive stains using isotype controls, and the percentage of cells staining positive for each surface antigen will be recorded.

[3] = system: mononuclear cells isolated from the bone marrow (BM) of C57BL/6 mice; assay: In vitro induction of DC from bone marrow mononuclear cells, phenotype and cytokine production; type: cell-based; settings: for CD11c+/CD86+ in total BM cells: 7 day incubation of BM cells with GM-CSF with or without the named factor; for expression of the proinflammatory cytokines IL-6 and IL-12 by induced DC: GM-CSF in presence of named factor, bacterial stimulation, vs DC induced by GM-CSF alone
Description: FIGS. 5F (Table 1) and 5A-E reflect the potency of a material system that delivers TSLP and GM-CSF to PD lesion in induction of tolerogenic DC. […] The surface phenotypes of CD11c+DC in the BM culture were monitored by flow cytometry and the proportionality of each phenotype is expressed as a percent (%) of the total mononuclear cells (MNC) (FIG. 5F, Table 1).
The present invention provides for a material-based local application of GM-CSF with appropriate DC influencing factors that leads to tolerogenic DCs (tDCs), and subsequent enrichment of iTreg cells. Candidate biofactors include thymic stromal lymphopoietin (TSLP), vasoactive intestinal peptide (VIP), and transforming growth factor-beta (TGF-β). Screening is based on the induced DC's anti-inflammatory properties. […] Overall, these observations that the combination of GM-CSF with TSLP efficiently induces DC with an anti-inflammatory phenotype.

T1 sequence (P15384 whole entry): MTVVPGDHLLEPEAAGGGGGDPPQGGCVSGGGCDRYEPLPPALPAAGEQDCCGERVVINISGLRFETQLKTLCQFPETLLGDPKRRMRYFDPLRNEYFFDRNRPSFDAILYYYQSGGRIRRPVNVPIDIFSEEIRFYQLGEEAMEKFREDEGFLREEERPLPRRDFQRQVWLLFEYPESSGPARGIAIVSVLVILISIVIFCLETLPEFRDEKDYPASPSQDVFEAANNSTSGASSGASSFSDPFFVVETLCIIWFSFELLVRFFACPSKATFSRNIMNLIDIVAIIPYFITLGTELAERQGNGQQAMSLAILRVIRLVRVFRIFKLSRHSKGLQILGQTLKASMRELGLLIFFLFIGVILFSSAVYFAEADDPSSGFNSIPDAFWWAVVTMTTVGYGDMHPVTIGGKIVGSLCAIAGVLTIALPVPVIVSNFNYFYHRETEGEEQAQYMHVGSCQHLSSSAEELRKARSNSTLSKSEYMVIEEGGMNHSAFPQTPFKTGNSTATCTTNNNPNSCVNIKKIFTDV

## Kaliotoxin
[1]
  RANKL production by activated rat T cells: inhibits

## granulocyte-macrophage colony stimulating factor [GM-CSF]
[2]
  bioactive GM-CSF load released: approximately 60%
CD11c(+)CD86(+) DCs; dorsal subcutaneous, day-14, vs control
  total cellular infiltration at the site: significantly enhanced
CD11c(+)CD86(+) DCs; subcutaneous
  total cell number and percentage of infiltrating cells that were CD11c(+)CD86(+) DCs: increased
JAWSII DCs; JAWSII DCs in vitro
  DC recruitment and proliferation: enhanced DC recruitment and proliferation in a dose-dependent manner
JAWSII DCs; high concentrations of GM-CSF
  DC activation via TNF-α and LPS stimulation (MHCII and CCR7 expression): suppressed DC activation
JAWSII DCs; transwell, 300 ng/ml CCL19, counts at 6 hours
  GM-CSF concentrations that inhibited DC migration toward the LN-derived chemokine CCL19: > 100 ng/mL
[3]
  CD11c+/CD86+ in total BM cells: 14.7%

## thymic stromal lymphopoietin [TSLP]
[3]
  expression of the proinflammatory cytokines IL-6 and IL-12 by induced DC: diminished expression

## transforming growth factor-beta [TGF-b]
[3]
  CD11c+/CD86+ in total BM cells: 10.5%
  expression of the proinflammatory cytokines IL-6 and IL-12 by induced DC: diminished expression

## vasoactive intestinal peptide (HSDAVFTDNYTRLRKQMAVKKYLNSILN; ends and bridges not checked; UniProt P01282 125-152, looked up) [VIP, candidate biofactor tested with GM-CSF]
[3]; BM cells with GM-CSF and named factor (100 ng/ml), 7 days, bacterial challenge
  IL-10 production by induced DC: did not up-regulate
[3]
  expression of the proinflammatory cytokines IL-6 and IL-12 by induced DC: diminished expression
